In ChEMBL document CHEMBL5696442, “Discovery of type II inhibitors of TGFβ-activated kinase 1 (TAK1) and mitogen-activated protein kinase kinase kinase kinase 2 (MAP4K2)” (J Med Chem, 2015):
The source made the active and inactive calls. No cut-off for these calls is given here.

Assays:
[1] = biological target: Cytoplasmic tyrosine-protein kinase BMX (Homo sapiens) (UniProt P51813); assay: Inhibition of BMX (unknown origin) at 10 uM by Ambit Kinomescan binding assay relative to control
[2] = biological target: Serine/threonine-protein kinase 3/4 (Homo sapiens) (UniProt Q13043+Q13188); assay: Inhibition of MST1/2 K2 labeling site in human Huh-7 cells at 10 uM by KiNativ Profiling analysis relative to control; type: cell-based
Chain of Serine/threonine-protein kinase 3/4 (Homo sapiens) (Q13043 whole entry, looked up): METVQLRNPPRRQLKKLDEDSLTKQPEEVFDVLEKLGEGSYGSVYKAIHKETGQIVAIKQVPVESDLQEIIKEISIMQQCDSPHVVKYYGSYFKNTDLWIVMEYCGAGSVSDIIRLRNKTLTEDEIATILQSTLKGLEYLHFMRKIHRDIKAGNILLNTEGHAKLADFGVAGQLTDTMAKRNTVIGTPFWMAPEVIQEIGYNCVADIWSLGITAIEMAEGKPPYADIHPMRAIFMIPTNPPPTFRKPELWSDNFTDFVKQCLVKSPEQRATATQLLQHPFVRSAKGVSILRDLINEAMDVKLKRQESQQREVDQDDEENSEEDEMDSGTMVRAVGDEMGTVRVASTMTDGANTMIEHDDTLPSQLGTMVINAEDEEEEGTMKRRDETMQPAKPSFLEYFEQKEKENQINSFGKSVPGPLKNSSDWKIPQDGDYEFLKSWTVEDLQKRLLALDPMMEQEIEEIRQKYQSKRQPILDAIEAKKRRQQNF
Chain of Serine/threonine-protein kinase 3/4 (Homo sapiens) (Q13188 whole entry, looked up): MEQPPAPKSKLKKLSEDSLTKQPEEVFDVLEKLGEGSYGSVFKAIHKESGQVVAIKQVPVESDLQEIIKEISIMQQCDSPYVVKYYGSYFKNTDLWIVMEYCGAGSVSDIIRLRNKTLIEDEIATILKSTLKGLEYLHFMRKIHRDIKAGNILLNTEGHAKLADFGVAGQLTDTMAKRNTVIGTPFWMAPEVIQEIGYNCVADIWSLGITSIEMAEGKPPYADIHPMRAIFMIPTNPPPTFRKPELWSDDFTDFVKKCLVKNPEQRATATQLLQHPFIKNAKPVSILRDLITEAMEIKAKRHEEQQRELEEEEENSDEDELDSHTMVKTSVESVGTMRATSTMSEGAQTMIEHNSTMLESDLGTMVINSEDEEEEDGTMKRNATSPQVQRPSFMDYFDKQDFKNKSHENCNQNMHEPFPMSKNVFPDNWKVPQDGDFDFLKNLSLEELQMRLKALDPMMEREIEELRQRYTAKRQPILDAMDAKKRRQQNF

[3] = biological target: Maternal embryonic leucine zipper kinase (Homo sapiens) (UniProt Q14680); assay: Inhibition of MELK Lys2 labeling site in human A-375 cells at 0.05 uM by KiNativ Profiling analysis relative to control; type: cell-based
Chain of Maternal embryonic leucine zipper kinase (Homo sapiens) (Q14680 whole entry, looked up): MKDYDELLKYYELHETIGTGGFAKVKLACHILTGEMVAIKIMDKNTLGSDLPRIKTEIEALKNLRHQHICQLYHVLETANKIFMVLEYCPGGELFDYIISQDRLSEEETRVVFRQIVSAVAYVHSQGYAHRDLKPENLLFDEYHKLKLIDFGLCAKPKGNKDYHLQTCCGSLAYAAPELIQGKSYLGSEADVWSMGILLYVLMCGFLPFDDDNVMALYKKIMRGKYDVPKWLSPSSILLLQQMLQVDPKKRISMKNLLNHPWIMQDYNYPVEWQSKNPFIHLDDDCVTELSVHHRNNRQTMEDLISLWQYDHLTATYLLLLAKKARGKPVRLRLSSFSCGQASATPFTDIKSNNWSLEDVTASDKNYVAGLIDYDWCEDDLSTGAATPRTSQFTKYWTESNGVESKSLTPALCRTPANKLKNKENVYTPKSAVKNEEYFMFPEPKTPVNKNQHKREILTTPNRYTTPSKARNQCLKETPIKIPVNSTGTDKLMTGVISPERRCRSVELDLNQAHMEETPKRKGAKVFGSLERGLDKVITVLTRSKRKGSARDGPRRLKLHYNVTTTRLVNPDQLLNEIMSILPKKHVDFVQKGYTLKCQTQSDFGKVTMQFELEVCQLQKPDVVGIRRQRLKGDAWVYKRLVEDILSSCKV

[4] = biological target: Cyclin-dependent kinase 8/19 (Homo sapiens) (UniProt P49336+Q9BWU1); assay: Inhibition of CDK8/11 K2 labeling site in human Huh-7 cells at 10 uM by KiNativ Profiling analysis relative to control; type: cell-based
Chain of Cyclin-dependent kinase 8/19 (Homo sapiens) (P49336 whole entry, looked up): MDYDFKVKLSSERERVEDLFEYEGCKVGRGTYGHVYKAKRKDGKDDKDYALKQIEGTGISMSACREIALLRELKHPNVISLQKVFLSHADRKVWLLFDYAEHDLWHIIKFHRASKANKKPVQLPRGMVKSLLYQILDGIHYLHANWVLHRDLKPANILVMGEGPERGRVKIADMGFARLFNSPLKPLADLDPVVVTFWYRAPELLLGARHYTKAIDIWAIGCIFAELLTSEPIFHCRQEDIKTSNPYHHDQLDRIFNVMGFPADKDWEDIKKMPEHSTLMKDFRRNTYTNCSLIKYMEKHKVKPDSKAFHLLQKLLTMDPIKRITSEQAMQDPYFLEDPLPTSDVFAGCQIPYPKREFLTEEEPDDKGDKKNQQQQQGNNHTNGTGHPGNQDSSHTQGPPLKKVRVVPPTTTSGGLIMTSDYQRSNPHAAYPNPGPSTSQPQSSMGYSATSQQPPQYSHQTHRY
Chain of Cyclin-dependent kinase 8/19 (Homo sapiens) (Q9BWU1 whole entry, looked up): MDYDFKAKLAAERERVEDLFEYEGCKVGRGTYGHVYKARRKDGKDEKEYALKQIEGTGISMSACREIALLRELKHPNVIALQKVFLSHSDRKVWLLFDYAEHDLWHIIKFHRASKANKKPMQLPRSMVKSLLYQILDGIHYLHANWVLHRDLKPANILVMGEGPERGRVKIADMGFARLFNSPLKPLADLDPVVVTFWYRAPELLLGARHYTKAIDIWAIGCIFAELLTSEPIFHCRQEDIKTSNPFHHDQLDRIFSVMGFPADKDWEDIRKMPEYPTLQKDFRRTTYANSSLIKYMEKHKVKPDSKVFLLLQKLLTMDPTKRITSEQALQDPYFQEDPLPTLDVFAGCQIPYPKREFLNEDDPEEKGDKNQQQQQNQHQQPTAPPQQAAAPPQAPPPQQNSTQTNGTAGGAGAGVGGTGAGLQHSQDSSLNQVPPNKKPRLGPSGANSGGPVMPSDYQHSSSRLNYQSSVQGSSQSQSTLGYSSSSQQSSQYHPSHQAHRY

[5] = system: Tyrosine-protein kinase ABL1 (Homo sapiens), P00519 [M351T]; assay: Inhibition of ABL1 M351T mutant (unknown origin) at 10 uM by Ambit Kinomescan binding assay relative to control
[6] = biological target: T1, Dual specificity mitogen-activated protein kinase kinase 6 (Homo sapiens) (UniProt P52564); assay: Inhibition of MAP2K6 K1 labeling site in human Huh-7 cells at 1 uM by KiNativ Profiling analysis relative to control; type: cell-based
T1 sequence (whole entry): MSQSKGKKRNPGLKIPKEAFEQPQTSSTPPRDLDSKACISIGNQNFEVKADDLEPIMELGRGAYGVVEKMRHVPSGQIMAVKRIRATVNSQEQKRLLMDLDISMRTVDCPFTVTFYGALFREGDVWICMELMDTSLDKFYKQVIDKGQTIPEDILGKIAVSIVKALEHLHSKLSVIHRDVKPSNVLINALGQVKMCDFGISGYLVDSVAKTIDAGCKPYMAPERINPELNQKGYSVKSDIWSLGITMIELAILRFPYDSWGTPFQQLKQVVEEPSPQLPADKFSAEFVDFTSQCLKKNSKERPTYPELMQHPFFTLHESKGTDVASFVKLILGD

[7] = biological target: T2, PAN2-PAN3 deadenylation complex subunit PAN3 (Homo sapiens) (UniProt Q58A45); assay: Inhibition of PAN3 KD labeling site in human Huh-7 cells at 1 uM by KiNativ Profiling analysis relative to control; type: cell-based
T2 sequence (whole entry): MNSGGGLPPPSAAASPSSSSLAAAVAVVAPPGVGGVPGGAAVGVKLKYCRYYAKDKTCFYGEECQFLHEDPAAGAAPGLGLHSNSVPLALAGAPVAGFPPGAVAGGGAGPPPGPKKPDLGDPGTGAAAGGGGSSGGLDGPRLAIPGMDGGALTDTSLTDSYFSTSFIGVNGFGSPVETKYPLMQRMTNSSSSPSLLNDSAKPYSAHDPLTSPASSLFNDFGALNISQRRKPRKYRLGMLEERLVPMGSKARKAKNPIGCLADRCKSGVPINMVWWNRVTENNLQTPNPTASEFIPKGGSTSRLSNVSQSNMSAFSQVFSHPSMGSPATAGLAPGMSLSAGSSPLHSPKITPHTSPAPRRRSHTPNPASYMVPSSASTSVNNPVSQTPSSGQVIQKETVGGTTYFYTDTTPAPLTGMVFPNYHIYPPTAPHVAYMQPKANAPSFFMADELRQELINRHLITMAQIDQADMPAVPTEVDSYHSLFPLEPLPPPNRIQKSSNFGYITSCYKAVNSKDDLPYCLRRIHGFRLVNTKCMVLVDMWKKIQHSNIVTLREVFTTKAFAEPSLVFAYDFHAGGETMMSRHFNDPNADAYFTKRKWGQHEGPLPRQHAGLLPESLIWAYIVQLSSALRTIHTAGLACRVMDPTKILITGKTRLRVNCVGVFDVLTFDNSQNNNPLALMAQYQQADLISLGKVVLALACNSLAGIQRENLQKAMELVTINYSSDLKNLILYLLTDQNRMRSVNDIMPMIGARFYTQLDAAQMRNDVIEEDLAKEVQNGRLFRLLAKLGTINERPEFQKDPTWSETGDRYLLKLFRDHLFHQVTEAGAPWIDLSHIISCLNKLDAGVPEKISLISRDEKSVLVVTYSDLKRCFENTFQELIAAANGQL

[8] = biological target: T3, Acylglycerol kinase, mitochondrial (Homo sapiens) (UniProt Q53H12); assay: Inhibition of AGK ATP labeling site in human Huh-7 cells at 1 uM by KiNativ Profiling analysis relative to control; type: cell-based
T3 sequence (whole entry): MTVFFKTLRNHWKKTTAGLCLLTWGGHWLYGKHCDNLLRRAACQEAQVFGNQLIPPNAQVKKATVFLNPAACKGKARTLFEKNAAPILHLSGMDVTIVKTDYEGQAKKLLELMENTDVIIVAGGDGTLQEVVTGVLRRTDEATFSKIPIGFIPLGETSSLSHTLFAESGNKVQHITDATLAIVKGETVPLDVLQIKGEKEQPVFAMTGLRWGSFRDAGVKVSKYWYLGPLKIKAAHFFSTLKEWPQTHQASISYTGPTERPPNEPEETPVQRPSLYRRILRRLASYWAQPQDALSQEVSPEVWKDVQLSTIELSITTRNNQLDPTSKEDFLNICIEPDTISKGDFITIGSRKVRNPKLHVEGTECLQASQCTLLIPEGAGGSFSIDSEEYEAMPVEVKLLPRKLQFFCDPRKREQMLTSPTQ

[9] = biological target: Cyclin-dependent kinase 13 (Homo sapiens) (UniProt Q14004); assay: Inhibition of CDC2L5 (unknown origin) at 1 uM by Ambit Kinomescan binding assay relative to control
Chain of Cyclin-dependent kinase 13 (Homo sapiens) (Q14004 whole entry, looked up): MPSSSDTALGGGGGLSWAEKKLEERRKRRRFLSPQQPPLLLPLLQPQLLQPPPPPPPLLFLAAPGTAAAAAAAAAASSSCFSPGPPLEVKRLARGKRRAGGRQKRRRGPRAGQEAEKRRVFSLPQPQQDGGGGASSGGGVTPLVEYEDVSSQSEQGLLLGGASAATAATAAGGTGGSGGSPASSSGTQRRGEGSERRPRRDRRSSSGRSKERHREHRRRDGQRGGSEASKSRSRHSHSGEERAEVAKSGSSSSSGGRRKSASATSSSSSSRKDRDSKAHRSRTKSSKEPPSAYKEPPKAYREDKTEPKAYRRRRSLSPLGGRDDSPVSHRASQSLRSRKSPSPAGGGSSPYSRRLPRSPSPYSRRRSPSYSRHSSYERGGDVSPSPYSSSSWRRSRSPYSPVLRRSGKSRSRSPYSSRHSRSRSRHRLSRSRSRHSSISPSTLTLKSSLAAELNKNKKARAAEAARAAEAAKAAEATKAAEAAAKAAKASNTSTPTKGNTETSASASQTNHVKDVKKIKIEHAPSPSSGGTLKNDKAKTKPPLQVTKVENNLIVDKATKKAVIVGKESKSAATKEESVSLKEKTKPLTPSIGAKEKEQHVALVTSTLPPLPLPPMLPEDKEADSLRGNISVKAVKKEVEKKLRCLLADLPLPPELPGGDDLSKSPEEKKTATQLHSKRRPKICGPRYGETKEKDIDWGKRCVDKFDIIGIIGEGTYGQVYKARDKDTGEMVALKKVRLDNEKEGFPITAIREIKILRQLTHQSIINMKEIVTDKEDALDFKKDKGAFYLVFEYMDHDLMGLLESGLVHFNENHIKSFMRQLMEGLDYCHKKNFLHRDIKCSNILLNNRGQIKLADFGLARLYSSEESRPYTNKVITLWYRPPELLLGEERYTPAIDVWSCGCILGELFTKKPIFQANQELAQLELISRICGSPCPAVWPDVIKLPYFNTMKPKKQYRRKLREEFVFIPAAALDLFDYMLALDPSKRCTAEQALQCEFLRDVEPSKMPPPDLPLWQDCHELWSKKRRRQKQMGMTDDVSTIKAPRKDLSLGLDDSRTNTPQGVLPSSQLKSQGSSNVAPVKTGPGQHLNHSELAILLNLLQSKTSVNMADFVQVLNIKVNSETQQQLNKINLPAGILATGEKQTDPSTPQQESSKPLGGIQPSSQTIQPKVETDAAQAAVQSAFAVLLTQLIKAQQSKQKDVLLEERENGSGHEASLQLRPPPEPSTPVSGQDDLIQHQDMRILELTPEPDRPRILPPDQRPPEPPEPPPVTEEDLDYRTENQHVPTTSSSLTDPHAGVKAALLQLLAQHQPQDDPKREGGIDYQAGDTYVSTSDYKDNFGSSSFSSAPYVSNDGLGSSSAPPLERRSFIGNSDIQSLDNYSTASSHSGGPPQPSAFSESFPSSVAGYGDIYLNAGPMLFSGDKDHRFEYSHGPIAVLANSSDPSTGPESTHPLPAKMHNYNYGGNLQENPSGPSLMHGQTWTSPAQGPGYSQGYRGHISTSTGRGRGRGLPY

[10] = biological target: Cyclin-dependent kinase 16 (Homo sapiens) (UniProt Q00536); assay: Inhibition of PCTK1 (unknown origin) at 1 uM by Ambit Kinomescan binding assay relative to control
Chain of Cyclin-dependent kinase 16 (Homo sapiens) (Q00536 whole entry): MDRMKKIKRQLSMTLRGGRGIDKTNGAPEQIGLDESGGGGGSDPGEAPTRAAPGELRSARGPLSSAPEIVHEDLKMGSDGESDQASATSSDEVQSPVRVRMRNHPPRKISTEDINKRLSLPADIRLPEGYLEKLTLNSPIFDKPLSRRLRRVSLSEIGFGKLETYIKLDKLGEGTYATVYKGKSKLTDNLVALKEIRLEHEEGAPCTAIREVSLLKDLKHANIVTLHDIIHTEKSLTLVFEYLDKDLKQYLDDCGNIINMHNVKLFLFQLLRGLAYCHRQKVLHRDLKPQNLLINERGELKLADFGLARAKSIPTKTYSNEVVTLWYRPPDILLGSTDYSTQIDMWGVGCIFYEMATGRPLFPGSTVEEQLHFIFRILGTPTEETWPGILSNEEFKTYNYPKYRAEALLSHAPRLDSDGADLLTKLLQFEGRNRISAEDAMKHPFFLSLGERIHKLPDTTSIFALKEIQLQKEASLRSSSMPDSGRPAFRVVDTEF

[11] = biological target: Calcium/calmodulin-dependent protein kinase kinase 2 (Homo sapiens) (UniProt Q96RR4); assay: Inhibition of CAMKK2 (unknown origin) at 1 uM by Ambit Kinomescan binding assay relative to control; values are per cent of control
[12] = biological target: Phosphatidylinositol 4,5-bisphosphate 3-kinase catalytic subunit beta isoform (Homo sapiens) (UniProt P42338); assay: Inhibition of PIK3CB ATP labeling site harbouring VFGEDSVGVIFKNGDDLRQDMLTLQMLR in human Huh-7 cells at 1 uM by KiNativ Profiling analysis relative to control; type: cell-based

For `CCN1CCN(Cc2ccc(NC(=O)c3ccc(C)c(Oc4ccnc5[nH]ccc45)c3)cc2C(F)(F)F)CC1`, the inhibition [1] was 2.4%, the inhibition [2] was -9.8% and the inhibition [3] was 4.1%. For the same molecule, the inhibition [4] was 18.3%, the inhibition [5] was 0.35% and the inhibition [6] was 16.3%. For the same molecule, the inhibition [7] was 13.4% and the inhibition [8] was “inactive”.
For `CCN1CCN(Cc2ccc(NC(=O)c3ccc(C)c(/C=C/c4cnc5[nH]ccc5c4OC)c3)cc2C(F)(F)F)CC1`, the inhibition [9] was 100%, the inhibition [10] was 100% and the residual activity [11] was 100%.
`CNc1cc(Oc2cc(C(=O)Nc3cc(N4CCN(C)CC4)cc(C(F)(F)F)c3)ccc2C)ncn1` was tested, and the inhibition [12] was 14%.
